# Data published in patent publication EP0364581A1, “METHOD OF STERILIZING PLANT POLLEN” (VSESOJUZNY NAUCHNO-ISSLEDOVATELSKY INST. SELSKOKHOZYAISTV. …, priority 1988, dated 1989).
# Read-outs that look alike come from different tables or passages of the source.
# Columns and labels:
# Assay in all cases: field test of gametocidal activity (sterilisation of anthers)
# Type in all cases: in vivo
# [1] = system: Hirse Sorte Mironovskoe 94; conditions: V. Periode, 1%ige wäßrige Emulsion, 10 kg/ha; for Prozentsatz des Ansetzens der Körner bei freier Bestäubung: control = 100
# Excerpt: (§1) Die gametozide Aktivität der erfindungsgemäßen Sterilisationsmittel war in Feldversuch in verschiedenen bodenklimatischen Zonen mit Teilstücken von 10 m^2 Größe in drei-- bis viermaliger Wiederholung nachgewiesen. Jedes Sterilisationsmittel wurde mindestens 5 Jahre lang geprüft.
# (§2) Die Entwicklung der Perioden der Organogenese wird zytologisch überwacht. Die Behandlung von Pflanzen mit dem Sterilisationsmittel erfolgt am Anfang der fünften Periode der Organogenese nach Kupermann.
# (§3) Mit dem Ahrenschieben verwirklicht man die Isolierung von Hauptähren und anderen Stockwerken in Pergamentbeuteln. Bei Weizen und Tritikale werden Einzelisolatoren verwendet. Bei Roggen schließt man je 1 Ähre von 5 bis 7 verschiedenen nebeneinander befindlichen Pflanzen in einen gemeinsamen Isolator ein. Bei Hirse wird jede Rispe getrennt isoliert. Der Sterilitätsprozentsatz (X) für Weizen, Roggen, Tritikale und Hirse wird nach der Formel [formula]
# (§4) Samen von unbehandelten Kontrollpflanzen ermittelt.
# (§5) Die Kornzahl in nicht isolierten Ähren von Kontrollpflanzen wird bedingt für 100% Ansetzen bei freier Bestäubung angenommen.
# (§6) Um zuverlässige Angaben zu erhalten, verwendet man 20 bis 25 Isolatoren jeder Wiederholung für Weizen und Tritikale, 10 bis 15 Isolatoren jeder Wiederholung für Roggen und Hirse.
# Pflanzen der Hirse Sorte Mironovskoe 94 werden in der V. Periode der Organogenese (nach Kupermann) mit einer l%igen wäßrigen Emulsion von Kaliumsalz der 2-Methyl-3-zyklohexen- karbonsäure, 2-Methyl-3-zyklohexenkarbonsäuremethylester, Phthalsäuredihexylester, Phthalsäuredibutylester, Phthalsäuredipropylester, Natriumsalz der p-Hydroxybenzoesäure, Phthalsäurediäthylester, Phthalsäurediallylester behandelt. Die Emulsion enthält 0,01 Masse% Dimethylformamid und 0,1 Masse% C12-C14-Kalziumalkylbenzolsulfonat. Der Verbrauch an Präparat beträgt 10 kg/ha. Als Kontrolle dienen Pflanzen, behandelt mit einem Verdünner ohne Sterilisationsmittel. Die Prüfergebnisse sind in der Tabelle 17 angeführt. […] Periode der Organogenese erhalten.
# Diploider Roggen Chulpan = conditions: for pest or weed control at 8000 g/ha / percent sterility at 8000 g/ha: read-out: Prozentsatz der Sterilität; for response vs control in vivo at 8000 g/ha: read-out: Prozentsätz des Ansetzens der Körner bei freier Bestäubung
# Excerpt: as §1, §2, §3, §4, §5, §6
# Pflanzen von diploidem Roggen Sorte Chulpan werden in der V. Periode der Organogenese (nach Kupermann) mit einer 1%igen wäßrigen Emulsion von Kaliumsalz der 2-Methyl-3-zy- klohexenkarbonsäure, 2-Methyl-3-zyklohexenkarbonsäuremethyl- ester, Kaliumsalz der Salizylsäure, Phthalsäurediallylester, Phthalsäurediisobutylester, Phthalsäuredipropylester, Phthalsäuredihexylester, Phthalsäuredibutylester. Die Emulsion enthält 0,01 Masse% Tetrahydrofuran und 0,1 Masse% C12-C14--Kalziumalkylbenzolsulfonat. Der Verbrauch an Präparat beträgt 8 kg/ha. Als Kuntrolle dienen Pflanzen, behandelt mit einem Verdünner ohne Sterilisationsmittel. […]
# [2] = system: Winterweizen Mironovskaya 808; conditions: treated in V. Periode der Organogenese, 2%ige wäßrige Emulsion, 20 kg/ha; for Prozentsatz des Ansetzens der Körner bei freier Bestäubung: control = 100
# Excerpt: as §1, §2, §3, §4, §5, §6
# Pflanzen des Winterweizens Sorte Mironovskaya 808 werden in der V. Periode der Organogenese durch Zerstäubung einer 2%igen wäßrigen Emulsion des Kaliumsalzes von 2-Methyl-3-zyklohexenkarbonsäure mit Hilfe einer Rückenspritze behandelt. Als Emulgiermittel setzt man 0,1 Masse% C12--C14 - Kalziumalkylbenzolsulfonat zu. Als Adjuvans führt man in die Emulsion 0,01 Masse% Dimethylformamid ein. Der Verbrauch an Präparat beträgt 20 kg/ha. Als Kontrolle dienen Pflanzen, behandelt mit einem Verdünner ohne Sterilisationsmittel. Die Ergebnisse sind in der Tabelle 1 angegeben. […] Periode der Organogenese erhalten.
# Der Prozeß wird analog zu dem in Beispiel 1 beschriebenen durchgeführt. Als Sterilisationsmittel verwendet man eine 2%ige wäßrige Emulsion von 2-Methyl-3-zyklohexenkarbon- säuremethylester, Ammoniumsalz der 2-Methyl-[…], Phthalsäuredihexylester, Phthalsäuredibutylester, Phthalsäuredipropylester, Phthalsäurediisobutylester, Phthalsäurediäthylester. Die Ergebnisse sind in der Tabelle 1 angeführt. […]
# [3] = Chulpan, V. Periode, 1%ige wäßrige Emulsion, 8 kg/ha
# [4] = Chulpan, V. Periode, 1%ige wäßrige Emulsion, 8 kg/ha, control = 100
Compound,Kornzahl der Ähre bei freier Bestäubung (Diploider Roggen Chulpan; [3]),Kornzahl der Ähre im Isolator (Diploider Roggen Chulpan; [3]),Kornzahl der Ähre bei freier Bestäubung [2],Kornzahl der Ähre im Isolator [2],Prozentsatz der Sterilität [2],Prozentsatz des Ansetzens der Körner bei freier Bestäubung [2],further results
"CC1C=CCCC1C(=O)[O-].[K+] (stereo not shown) [Beispiel 89, Kaliumsalz der 2-Methyl-3-zyklohexen-karbonsäure]",–,–,–,–,–,–,"Kornzahl der Rispe bei freier Bestäubung [1]: 304,3; Kornzahl der Rispe im Isolator [1]: 0,0; Prozentsatz der Sterilität [1]: 100,0%; Prozentsatz des Ansetzens der Körner bei freier Bestäubung [1]: 80,2%"
"CCCOC(=O)c1ccccc1C(=O)OCCC [Beispiel 93, Phthalsäuredipropylester]",–,–,–,–,–,–,"Kornzahl der Rispe bei freier Bestäubung [1]: 308,7; Kornzahl der Rispe im Isolator [1]: 0,0; Prozentsatz der Sterilität [1]: 100,0%; Prozentsatz des Ansetzens der Körner bei freier Bestäubung [1]: 81,3%"
"COC(=O)C1CCC=CC1C (stereo not shown) [Beispiel 90, 2-Methyl-3-zyklohexenkarbonsäuremethylester]",–,–,–,–,–,–,"Kornzahl der Rispe bei freier Bestäubung [1]: 327,6; Kornzahl der Rispe im Isolator [1]: 0,0; Prozentsatz der Sterilität [1]: 100,0%; Prozentsatz des Ansetzens der Körner bei freier Bestäubung [1]: 86,3%"
"CCCCOC(=O)c1ccccc1C(=O)OCCCC [Beispiel 67, Phthalsäuredibutylester]","50,5","0,0",–,–,–,–,pest or weed control at 8000 g/ha (Diploider Roggen Chulpan): 100%; response vs control in vivo at 8000 g/ha (Diploider Roggen Chulpan): 88.9%
"CCCCCCOC(=O)c1ccccc1C(=O)OCCCCCC [Beispiel 91, Phthalsäuredihexylester]",–,–,–,–,–,–,"Kornzahl der Rispe bei freier Bestäubung [1]: 311,5; Kornzahl der Rispe im Isolator [1]: 0,0; Prozentsatz der Sterilität [1]: 100,0%; Prozentsatz des Ansetzens der Körner bei freier Bestäubung [1]: 82,1%"
"COC(=O)C1CCC=CC1C (stereo not shown) [Beispiel 2, 2-Methyl-3-zyklohexenkarbon-säuremethylester]",–,–,"30,1","0,0","100,0%","74,5%",–
"CCOC(=O)c1ccccc1C(=O)OCC [Beispiel 95, Phthalsäurediäthylester]",–,–,–,–,–,–,"Kornzahl der Rispe bei freier Bestäubung [1]: 352,5; Kornzahl der Rispe im Isolator [1]: 0,0; Prozentsatz der Sterilität [1]: 100,0%; Prozentsatz des Ansetzens der Körner bei freier Bestäubung [1]: 92,6%"
"CCCCOC(=O)c1ccccc1C(=O)OCCCC [Beispiel 92, Phthalsäuredibutylester]",–,–,–,–,–,–,"Kornzahl der Rispe bei freier Bestäubung [1]: 351,4; Kornzahl der Rispe im Isolator [1]: 0,0; Prozentsatz der Sterilität [1]: 100,0%; Prozentsatz des Ansetzens der Körner bei freier Bestäubung [1]: 92,6%"
"CCCCOC(=O)c1ccccc1C(=O)OCCCC [Beispiel 5, Phthalsäuredibutylester]",–,–,"31,7","0,0","100,0%","78,5%",–
"CC(C)COC(=O)c1ccccc1C(=O)OCC(C)C [Beispiel 64, Phthalsäurediisobutylester]","52,2","0,5",–,–,–,–,pest or weed control at 8000 g/ha (Diploider Roggen Chulpan): 99%; response vs control in vivo at 8000 g/ha (Diploider Roggen Chulpan): 91.9%
"CCCOC(=O)c1ccccc1C(=O)OCCC [Beispiel 65, Phthalsäuredipropylester]","53,2","0,0",–,–,–,–,pest or weed control at 8000 g/ha (Diploider Roggen Chulpan): 100%; response vs control in vivo at 8000 g/ha (Diploider Roggen Chulpan): 93.6%
"CCCOC(=O)c1ccccc1C(=O)OCCC [Beispiel 6, Phthalsäuredipropylester]",–,–,"39,0","5,0","86,8%","96,5%",–
"CC(C)COC(=O)c1ccccc1C(=O)OCC(C)C [Beispiel 7, Phthalsäurediisobutylester]",–,–,"37,7","0,2","99,5%","93,3%",–
"CCOC(=O)c1ccccc1C(=O)OCC [Beispiel 8, Phthalsäurediäthylester]",–,–,"39,8","0,5","98,7%","98,5%",–
"CC1C=CCCC1C(=O)O.N (stereo not shown) [Beispiel 3, Ammoniumsalz der 2-Methyl-23-zyklohexen-karbonsäure]",–,–,"39,2","0,6","98,4%","97,0%",–
"CC1C=CCCC1C(=O)O (stereo not shown) [Beispiel 60, Kaliumsalz der 2-Methyl-3-zy-klohexenkarbonsäure]","55,2","0,0",–,–,–,–,response vs control in vivo at 8000 g/ha (Diploider Roggen Chulpan; [4]): 97.1%; percent sterility at 8000 g/ha (Diploider Roggen Chulpan; [3]): 100%
"COC(=O)C1CCC=CC1C (stereo not shown) [Beispiel 61, 2-Methyl-3-zyklohexenkarbonsäuremethyl-ester]","51,0","0,0",–,–,–,–,response vs control in vivo at 8000 g/ha (Diploider Roggen Chulpan; [4]): 89.8%; percent sterility at 8000 g/ha (Diploider Roggen Chulpan; [3]): 100%
"CCCCCCOC(=O)c1ccccc1C(=O)OCCCCCC [Beispiel 4, Phthalsäuredihexylester]",–,–,"38,2","4,2","88,9%","94,5%",–
"C=CCOC(=O)c1ccccc1C(=O)OCC=C [Beispiel 63, Phthalsäurediallylester]","53,7","0,3",–,–,–,–,percent sterility at 8000 g/ha (Diploider Roggen Chulpan; [3]): 99.4%; response vs control in vivo at 8000 g/ha (Diploider Roggen Chulpan): 94.5%
"CC1C=CCCC1C(=O)[O-].[K+] (stereo not shown) [Beispiel 1, Kaliumsalzes von 2-Methyl-3-zyklohexenkarbonsäure]",–,–,"38,6","3,2","91,5%","95,5%",–
"O=C(O)c1ccccc1O [Beispiel 62, Kaliumsalz der Salizylsäure]","50,4","10,4",–,–,–,–,pest or weed control at 8000 g/ha (Diploider Roggen Chulpan): 79.7%; response vs control in vivo at 8000 g/ha (Diploider Roggen Chulpan): 88.7%
"CCCCCCOC(=O)c1ccccc1C(=O)OCCCCCC [Beispiel 66, Phthalsäuredihexylester]","57,0","0,0",–,–,–,–,pest or weed control at 8000 g/ha (Diploider Roggen Chulpan): 100%; response vs control in vivo at 8000 g/ha (Diploider Roggen Chulpan): 100%
